In ChEMBL document CHEMBL1201862, “PubChem BioAssay data set” (2004):
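Assay format: 96-well plates, 48-hour exposure. GI50 marks 50% less growth.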 Activity calls are given as the source filed them. Rule as the data show it: active = GI50 up to about 1.1 µM and inactive = higher.

Key:
Experiment in all cases: NCI anticancer screen, dose series, 48 h
UACC-257 = test system: UACC-257
OVCAR-8 = test system: OVCAR-8
NCI/ADR-RES = test system: NCI/ADR-RES
SN12C = test system: SN12C
HT-29 = test system: HT-29
IGROV-1 = test system: IGROV-1
HCC 2998 = test system: HCC 2998
RPMI-8226 = test system: RPMI-8226
SF-268 = test system: SF-268
SK-MEL-28 = test system: SK-MEL-28
OVCAR-5 = test system: OVCAR-5
M14 = test system: M14
SK-OV-3 = test system: SK-OV-3
SR = test system: SR
MDA-N = test system: MDA-N
CAKI-1 = test system: CAKI-1
NCI-H460 = test system: NCI-H460
UO-31 = test system: UO-31
MDA-MB-231 = test system: MDA-MB-231
TK-10 = test system: TK-10

CC(C)Cc1ccc(C(C)CC2=CCC(CN(C)C)C2=O)cc1 (stereo not given)
GI50 (UACC-257): 13.5 µM (inactive)
GI50 (OVCAR-8): 7.41 µM (inactive)
GI50 (NCI/ADR-RES): 16.9 µM (inactive)
GI50 (SN12C): 9.1 µM (inactive)
GI50 (HT-29): 6.38 µM (inactive)
GI50 (IGROV-1): 9.51 µM (inactive)
GI50 (HCC 2998): 5.19 µM (inactive)
GI50 (RPMI-8226): 0.333 µM (active)
GI50 (SF-268): 14.9 µM (inactive)
GI50 (SK-MEL-28): 9.31 µM (inactive)
GI50 (OVCAR-5): 16.1 µM (inactive)
GI50 (M14): 4.7 µM (inactive)
GI50 (SK-OV-3): 17.6 µM (inactive)
GI50 (SR): 1.86 µM (inactive)
GI50 (MDA-N): 5.75 µM (inactive)
GI50 (CAKI-1): 1.84 µM (inactive)
GI50 (NCI-H460): 31.7 µM (inactive)
GI50 (UO-31): 16.4 µM (inactive)
GI50 (MDA-MB-231): 10.5 µM (inactive)

COc1ccc(N2C(=O)/C(=C/c3ccc(N(CCC#N)CCC#N)cc3)N=C2c2ccccc2)cc1
GI50 (UACC-257): > 100 µM (inactive)
GI50 (OVCAR-8): > 100 µM (inactive)
GI50 (NCI/ADR-RES): > 100 µM (inactive)
GI50 (SN12C): > 100 µM (inactive)
GI50 (HT-29): > 100 µM (inactive)
GI50 (IGROV-1): > 100 µM (inactive)
GI50 (TK-10): > 100 µM (inactive)
GI50 (RPMI-8226): > 100 µM (inactive)
GI50 (SF-268): > 100 µM (inactive)
GI50 (SK-MEL-28): > 100 µM (inactive)
GI50 (OVCAR-5): > 100 µM (inactive)
GI50 (M14): > 100 µM (inactive)
GI50 (SK-OV-3): > 100 µM (inactive)
GI50 (SR): > 100 µM (inactive)
GI50 (MDA-N): > 100 µM (inactive)
GI50 (CAKI-1): 6.19 µM (inactive)
GI50 (NCI-H460): > 100 µM (inactive)
GI50 (UO-31): > 100 µM (inactive)
GI50 (MDA-MB-231): > 100 µM (inactive)

O=[N+]([O-])c1ccc(NN/N=N/c2ccc(-c3nc4ccccc4s3)cc2)c([N+](=O)[O-])c1
GI50 (UACC-257): 18.9 µM (inactive)
GI50 (OVCAR-8): 24.3 µM (inactive)
GI50 (NCI/ADR-RES): 25.1 µM (inactive)
GI50 (SN12C): 22.6 µM (inactive)
GI50 (HT-29): 18.8 µM (inactive)
GI50 (IGROV-1): 19.9 µM (inactive)
GI50 (HCC 2998): 17.8 µM (inactive)
GI50 (TK-10): 36.9 µM (inactive)
GI50 (SF-268): 26.5 µM (inactive)
GI50 (SK-MEL-28): 33.7 µM (inactive)
GI50 (OVCAR-5): 23.8 µM (inactive)
GI50 (M14): 18.2 µM (inactive)
GI50 (SK-OV-3): 28.7 µM (inactive)
GI50 (SR): 26.8 µM (inactive)
GI50 (MDA-N): 19 µM (inactive)
GI50 (CAKI-1): 26.5 µM (inactive)
GI50 (NCI-H460): 22.3 µM (inactive)
GI50 (UO-31): 19.1 µM (inactive)
GI50 (MDA-MB-231): 22.3 µM (inactive)

C/C(=N\c1cccc(Cl)c1)c1ccncc1
GI50 (UACC-257): > 10 µM (inactive)
GI50 (OVCAR-8): > 100 µM (inactive)
GI50 (NCI/ADR-RES): > 100 µM (inactive)
GI50 (SN12C): > 100 µM (inactive)
GI50 (HT-29): > 100 µM (inactive)
GI50 (IGROV-1): > 100 µM (inactive)
GI50 (HCC 2998): > 100 µM (inactive)
GI50 (TK-10): > 100 µM (inactive)
GI50 (RPMI-8226): > 100 µM (inactive)
GI50 (SF-268): 14.6 µM (inactive)
GI50 (SK-MEL-28): > 100 µM (inactive)
GI50 (OVCAR-5): > 100 µM (inactive)
GI50 (M14): > 100 µM (inactive)
GI50 (SK-OV-3): > 100 µM (inactive)
GI50 (MDA-N): > 100 µM (inactive)
GI50 (CAKI-1): > 100 µM (inactive)
GI50 (NCI-H460): > 100 µM (inactive)
GI50 (UO-31): > 100 µM (inactive)
GI50 (MDA-MB-231): > 100 µM (inactive)

CC(C)(C)OC(=O)NCC(c1c[nH]c2ccccc12)c1c[nH]c2ccccc12
GI50 (UACC-257): 15.1 µM (inactive)
GI50 (OVCAR-8): 16.7 µM (inactive)
GI50 (NCI/ADR-RES): 19.4 µM (inactive)
GI50 (SN12C): 16.7 µM (inactive)
GI50 (HT-29): 15.1 µM (inactive)
GI50 (IGROV-1): 12.3 µM (inactive)
GI50 (TK-10): 15.5 µM (inactive)
GI50 (RPMI-8226): 6.62 µM (inactive)
GI50 (SF-268): 17.1 µM (inactive)
GI50 (SK-MEL-28): 18.1 µM (inactive)
GI50 (OVCAR-5): 16.9 µM (inactive)
GI50 (M14): 14.9 µM (inactive)
GI50 (SK-OV-3): 16.8 µM (inactive)
GI50 (SR): 14.9 µM (inactive)
GI50 (MDA-N): 17.5 µM (inactive)
GI50 (CAKI-1): 14.5 µM (inactive)
GI50 (NCI-H460): 14.9 µM (inactive)
GI50 (UO-31): 14.1 µM (inactive)
GI50 (MDA-MB-231): 16 µM (inactive)

Cc1ccc(C2=Nc3ccccc3SC(c3cccc([N+](=O)[O-])c3)C2)cc1 (stereo not given)
GI50 (UACC-257): 24.7 µM (inactive)
GI50 (OVCAR-8): 10.2 µM (inactive)
GI50 (NCI/ADR-RES): 59.6 µM (inactive)
GI50 (SN12C): 34.1 µM (inactive)
GI50 (HT-29): 5.96 µM (inactive)
GI50 (IGROV-1): 8.34 µM (inactive)
GI50 (TK-10): 14.5 µM (inactive)
GI50 (RPMI-8226): 2.38 µM (inactive)
GI50 (SF-268): 16.2 µM (inactive)
GI50 (SK-MEL-28): > 100 µM (inactive)
GI50 (OVCAR-5): > 100 µM (inactive)
GI50 (M14): 23.9 µM (inactive)
GI50 (SK-OV-3): 31.1 µM (inactive)
GI50 (MDA-N): 15.7 µM (inactive)
GI50 (CAKI-1): 51.4 µM (inactive)
GI50 (NCI-H460): 27.9 µM (inactive)
GI50 (UO-31): 5.4 µM (inactive)
GI50 (MDA-MB-231): 40.6 µM (inactive)

CC(=O)O[C@H]1C(=O)[C@@]2(C)[C@H]([C@H](OC(=O)c3ccccc3)[C@]3(O)C[C@H](OC(=O)[C@H](O)[C@@H](NC(=O)CC(C)(C)C)c4ccccc4)C(C)=C1C3(C)C)C1(OC(C)=O)CO[C@@H]1C[C@@H]2O (stereo not given in full)
GI50 (UACC-257): 0.00684 µM (active)
GI50 (OVCAR-8): 0.00283 µM (active)
GI50 (NCI/ADR-RES): 4.26 µM (inactive)
GI50 (SN12C): 0.00287 µM (active)
GI50 (HT-29): < 0.001 µM (active)
GI50 (IGROV-1): 0.00154 µM (active)
GI50 (HCC 2998): 0.00231 µM (active)
GI50 (TK-10): 0.047 µM (active)
GI50 (RPMI-8226): < 0.001 µM (active)
GI50 (SF-268): 0.0023 µM (active)
GI50 (SK-MEL-28): < 0.001 µM (active)
GI50 (SK-OV-3): 0.00171 µM (active)
GI50 (MDA-N): 0.1 µM (active)
GI50 (CAKI-1): 0.128 µM (active)
GI50 (NCI-H460): 0.00235 µM (active)
GI50 (UO-31): 3.96 µM (inactive)
GI50 (MDA-MB-231): > 10 µM (inactive)
